Test results published in patent US10053451B2, “Heterocyclic estrogen receptor modulators and uses thereof” (priority 2015, dated 2018).

Biological target: T1, estrogen receptor alpha (ESR1) (Homo sapiens, UniProt P03372)
T1 construct: MCF7 cells were trypsinized and washed twice; endogenous in cells; host or cells: MCF7 breast cancer cells
T1 sequence (P03372 1-595): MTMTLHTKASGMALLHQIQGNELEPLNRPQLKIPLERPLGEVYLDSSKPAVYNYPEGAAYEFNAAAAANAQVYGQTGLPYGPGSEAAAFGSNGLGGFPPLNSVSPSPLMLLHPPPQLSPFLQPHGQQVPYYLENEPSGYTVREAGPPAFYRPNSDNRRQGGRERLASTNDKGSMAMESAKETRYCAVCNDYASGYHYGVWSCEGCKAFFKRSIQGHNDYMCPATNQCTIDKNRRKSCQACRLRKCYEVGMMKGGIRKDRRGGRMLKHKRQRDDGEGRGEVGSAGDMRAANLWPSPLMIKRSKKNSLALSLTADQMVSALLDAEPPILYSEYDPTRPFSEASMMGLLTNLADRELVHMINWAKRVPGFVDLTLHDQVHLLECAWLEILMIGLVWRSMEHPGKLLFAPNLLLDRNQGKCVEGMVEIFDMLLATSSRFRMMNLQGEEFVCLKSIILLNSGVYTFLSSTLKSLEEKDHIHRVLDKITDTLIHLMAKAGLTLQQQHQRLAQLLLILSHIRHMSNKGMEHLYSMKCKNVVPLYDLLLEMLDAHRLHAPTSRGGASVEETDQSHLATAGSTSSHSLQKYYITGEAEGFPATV
Test: Breast Cancer Cell ERa High Content Fluorescence Imaging Assay (ER-alpha MCF7 Assay)
Type: cell-based
Details: MCF7 cells, 4 hours; plateau of maximal effect; DMSO = 0%, 5 nM Fulvestrant = 100% change in ESR1
Description: Cell plates were incubated at 37° C., for 4 hours. Fixation and permeabilization were carried out using a Biotek EL406 plate washer and dispenser as follows. […] Samples were incubated 30 minutes. Well contents was aspirated and 50 uL/well of Phosphate Buffered Saline (PBS) containing 0.5% w/v bovine serum albumen, 0.5% v/v Triton X-100 (Antibody Dilution Buffer) was added to each well. Samples were incubated for 30 minutes. Well contents were aspirated and washed 3 times with 100 uL/well of PBS. Immunofluorescence staining of estrogen receptor alpha (ESR1) was carried out using a Biotek EL406 plate washer and dispenser as follows. […] Samples were incubated for 2 hours at room temperature. Samples were washed 4 times with 100 uL/well of PBS. […] Samples were incubated for 2 hours at room temperature. Samples were washed 3 times with 100 uL/well of PBS using a Biotek EL406. Quantitative fluorescence imaging of ESR1 was carried out using a Cellomics Arrayscan V (Thermo). […] Channel 1 (DNA stain) was used to define the nuclear region (Circ). […] The “Robust Fit” method was used to define the inflexion point of curve (EC50) and the plateau of the maximal effect (Sinf).

| ER-alpha MCF7 Sinf (%) | Compound |
| --- | --- |
| 96.4 | CC1=C(c2ncccc2C)C(c2ccc(OCCN3CC(CF)C3)cc2)Oc2ccc(O)cc21 (stereo not drawn) [Example 33, 2-{4-[2-(3-Fluoromethyl-azetidin-1-yl)-ethoxy]-phenyl}-4-methyl-3-(3-methyl-pyridin-2-yl)-2H-chromen-6-ol] |
| 98.3 | CC1=C(C2CCC(O)C2)C(c2ccc(OCCN3CC(CF)C3)cc2)Oc2ccc(O)cc21 (stereo not drawn) [Example 46, 2-[4-[2-[3-(fluoromethyl)azetidin-1-yl]ethoxy]phenyl]-3-(3-hydroxycyclopentyl)-4-methyl-2H-chromen-6-ol] |
| 94.7 | CC1=C(c2cccc(O)c2)[C@H](c2cnn(CCCN3CC(CF)C3)c2)Oc2ccc(O)cc21 [Example 51, (R)-2-(1-(3-(3-(fluoromethyl)azetidin-1-yl)propyl)-1H-pyrazol-4-yl)-3-(3-hydroxyphenyl)-4-methyl-2H-chromen-6-ol] |
| 96.6 | CC1=C(C2=CC(=O)CC2)C(c2ccc(OCCN3CC(CF)C3)cc2)Oc2ccc(O)cc21 (stereo not drawn) [Example 45, 3-[2-[4-[2-[3-(fluoromethyl)azetidin-1-yl]ethoxy]phenyl]-6-hydroxy-4-methyl-2H-chromen-3-yl]cyclopent-2-en-1-one] |
| 98.7 | CC1=C(C2=CCC(O)CC2)C(c2ccc(OCCN3CC(CF)C3)cc2)Oc2ccc(O)cc21 (stereo not drawn) [Example 21, 2-(4-(2-(3-(Fluoromethyl)azetidin-1-yl)ethoxy)phenyl)-3-(4-hydroxycyclohex-1-en-1-yl)-4-methyl-2H-chromen-6-ol] |
| 90.3 | CC1=C(c2cncnc2)C(c2ccc(OCCN3CC(CF)C3)cc2)Oc2ccc(O)cc21 (stereo not drawn) [Example 38, 2-{4-[2-(3-Fluoromethyl-azetidin-1-yl)-ethoxy]-phenyl}-4-methyl-3-pyrimidin-5-yl-2H-chromen-6-ol] |
| 98.5 | CC1=C(c2cccnc2C)C(c2ccc(OCCN3CC(CF)C3)cc2)Oc2ccc(O)cc21 (stereo not drawn) [Example 35, 2-{4-[2-(3-Fluoromethyl-azetidin-1-yl)-ethoxy]-phenyl}-4-methyl-3-(2-methyl-pyridin-3-yl)-2H-chromen-6-ol] |
| 97.1 | CC1=C(C2=CCC(F)(F)CC2)C(c2ccc(OCCN3CC(CF)C3)cc2)Oc2ccc(O)cc21 (stereo not drawn) [Example 26, 3-(4,4-difluorocyclohex-1-en-1-yl)-2-(4-(2-(3-(fluoromethyl)azetidin-1-yl)ethoxy)phenyl)-4-methyl-2H-chromen-6-ol] |
| 91.8 | CC1=C(c2cncc(C#N)c2)C(c2ccc(OCCN3CC(CF)C3)cc2)Oc2ccc(O)cc21 (stereo not drawn) [Example 44, 5-(2-{4-[2-(3-Fluoromethyl-azetidin-1-yl)-ethoxy]-phenyl}-6-hydroxy-4-methyl-2H-chromen-3-yl)-nicotinonitrile] |
| 97.5 | CC1=C(c2cnccc2C)C(c2ccc(OCCN3CC(CF)C3)cc2)Oc2ccc(O)cc21 (stereo not drawn) [Example 34, 2-{4-[2-(3-Fluoromethyl-azetidin-1-yl)-ethoxy]-phenyl}-4-methyl-3-(4-methyl-pyridin-3-yl)-2H-chromen-6-ol] |
| 98.9 | CC1=C(C2CCOC2)C(c2ccc(OCCN3CC(CF)C3)cc2)Oc2ccc(O)cc21 (stereo not drawn) [Example 29, 2-(4-(2-(3-(fluoromethyl)azetidin-1-yl)ethoxy)phenyl)-4-methyl-3-(tetrahydrofuran-3-yl)-2H-chromen-6-ol] |
| 97.7 | CC1=C(C2CCOCC2)C(c2ccc(OCCN3CC(CF)C3)cc2)Oc2ccc(O)cc21 (stereo not drawn) [Example 24, 2-(4-(2-(3-(fluoromethyl)azetidin-1-yl)ethoxy)phenyl)-4-methyl-3-(tetrahydro-2H-pyran-4-yl)-2H-chromen-6-ol] |
| 90.0 | CC1=C(C2=CCNC2)C(c2ccc(OCCN3CC(CF)C3)cc2)Oc2ccc(O)cc21 (stereo not drawn) [Example 18, 3-(2,5-dihydro-1H-pyrrol-3-yl)-2-(4-(2-(3-(fluoromethyl)azetidin-1-yl)ethoxy)phenyl)-4-methyl-2H-chromen-6-ol] |
| 95.2 | CC1=C(c2cnn(C)c2)C(c2ccc(OCCN3CC(CF)C3)cc2)Oc2ccc(O)cc21 (stereo not drawn) [Example 42, 2-{4-[2-(3-Fluoromethyl-azetidin-1-yl)-ethoxy]-phenyl}-4-methyl-3-(1-methyl-1H-pyrazol-4-yl)-2H-chromen-6-ol] |
| 98.9 | CC1=C(c2cncc(S(C)(=O)=O)c2)C(c2ccc(OCCN3CC(CF)C3)cc2)Oc2ccc(O)cc21 (stereo not drawn) [Example 41, 2-{4-[2-(3-Fluoromethyl-azetidin-1-yl)-ethoxy]-phenyl}-3-(5-methanesulfonyl-pyridin-3-yl)-4-methyl-2H-chromen-6-ol] |
| 97.3 | CC1=C(/C=C/CO)C(c2ccc(OCCN3CC(CF)C3)cc2)Oc2ccc(O)cc21 (stereo not drawn) [Example 52, 2-[4-[2-[3-(fluoromethyl)azetidin-1-yl]ethoxy]phenyl]-3-[(E)-3-hydroxyprop-1-enyl]-4-methyl-2H-chromen-6-ol] |
| 95.4 | CC1=C(C2=CC(O)CC2)C(c2ccc(OCCN3CC(CF)C3)cc2)Oc2ccc(O)cc21 (stereo not drawn) [Example 47, 2-[4-[2-[3-(fluoromethyl)azetidin-1-yl]ethoxy]phenyl]-3-(3-hydroxycyclopenten-1-yl)-4-methyl-2H-chromen-6-ol] |
| 93.9 | CC(C)=CC1=C(C)c2cc(O)ccc2OC1c1ccc(OCCN2CC(CF)C2)cc1 (stereo not drawn) [Example 16, 2-[4-[2-[3-(Fluoromethyl)azetidin-1-yl]ethoxy]phenyl]-4-methyl-3-(2-methylprop-1-enyl)-2H-chromen-6-ol] |
| 97.3 | CC1=C(c2cncc(F)c2)C(c2ccc(OCCN3CC(CF)C3)cc2)Oc2ccc(O)cc21 (stereo not drawn) [Example 43, 2-{4-[2-(3-Fluoromethyl-azetidin-1-yl)-ethoxy]-phenyl}-3-(5-fluoro-pyridin-3-yl)-4-methyl-2H-chromen-6-ol] |
| 93.7 | CC(=O)N1CC=C(C2=C(C)c3cc(O)ccc3OC2c2ccc(OCCN3CC(CF)C3)cc2)C1 (stereo not drawn) [Example 20, 1-(3-(2-(4-(2-(3-(Fluoromethyl)azetidin-1-yl)ethoxy)phenyl)-6-hydroxy-4-methyl-2H-chromen-3-yl)-2,5-dihydro-1H-pyrrol-1-yl)ethanone] |
| 80 | CC(=O)N1CCC(C2=C(C)c3cc(O)ccc3OC2c2ccc(OCCN3CC(CF)C3)cc2)C1 (stereo not drawn) [Example 19, 1-(3-(2-(4-(2-(3-(Fluoromethyl)azetidin-1-yl)ethoxy)phenyl)-6-hydroxy-4-methyl-2H-chromen-3-yl)pyrrolidin-1-yl)ethanone] |
| 97.9 | CC1=C(C2=CCOC2)C(c2ccc(OCCN3CC(CF)C3)cc2)Oc2ccc(O)cc21 (stereo not drawn) [Example 30, 3-(2,5-dihydrofuran-3-yl)-2-(4-(2-(3-(fluoromethyl)azetidin-1-yl)ethoxy)phenyl)-4-methyl-2H-chromen-6-ol] |
| 95.4 | CC1=C(c2cnc(N)nc2)C(c2ccc(OCCN3CC(CF)C3)cc2)Oc2ccc(O)cc21 (stereo not drawn) [Example 39, 3-(2-Amino-pyrimidin-5-yl)-2-{4-[2-(3-fluoromethyl-azetidin-1-yl)-ethoxy]-phenyl}-4-methyl-2H-chromen-6-ol] |
| 93.9 | CC1=C(CC(C)C)C(c2ccc(OCCN3CC(CF)C3)cc2)Oc2ccc(O)cc21 (stereo not drawn) [Example 17, 2-(4-(2-(3-(Fluoromethyl)azetidin-1-yl)ethoxy)phenyl)-3-isobutyl-4-methyl-2H-chromen-6-ol] |
| 99.2 | CC1=C(c2cncc(C)c2)C(c2ccc(OCCN3CC(CF)C3)cc2)Oc2ccc(O)cc21 (stereo not drawn) [Example 37, 2-{4-[2-(3-Fluoromethyl-azetidin-1-yl)-ethoxy]-phenyl}-4-methyl-3-(5-methyl-pyridin-3-yl)-2H-chromen-6-ol] |
| 85.9 | CNC(=O)N1CCC(C2=C(C)c3cc(O)ccc3OC2c2ccc(OCCN3CC(CF)C3)cc2)CC1 (stereo not drawn) [Example 31, 4-(2-(4-(2-(3-(fluoromethyl)azetidin-1-yl)ethoxy)phenyl)-6-hydroxy-4-methyl-2H-chromen-3-yl)-N-methylpiperidine-1-carboxamide] |
| 97.4 | CC1=C(c2ncc(C#N)cc2C)C(c2ccc(OCCN3CC(CF)C3)cc2)Oc2ccc(O)cc21 (stereo not drawn) [Example 22, 2-{4-[2-(3-Fluoromethyl-azetidin-1-yl)-ethoxy]-phenyl}-4-methyl-3-(3-methyl-5-cyano-pyridin-2-yl)-2H-chromen-6-ol] |
